# From ChEMBL document CHEMBL5604062, “ASAP - ZIKV NS2B-NS3 protease fluorescence dose response” (2024)
# “And” between values parts separate entries of the source, which are not always exact repeats. Identical values can stand only once.
# Target: Nonstructural protein 3 (Zika virus, UniProt A0A024AXB9)
# Assay: Functional biochemical assay to identify treatments for viral infectious disease that targets Zika NS2B-NS3 protease. Utilizing a direct enzyme activity measurement method, reading the fluorescence intensity is used to characterize the relative potency of inhibitors as IC50.
# Parameters: species or system PRVABC59
# Nonstructural protein 3, sequence (A0A024AXB9 whole entry): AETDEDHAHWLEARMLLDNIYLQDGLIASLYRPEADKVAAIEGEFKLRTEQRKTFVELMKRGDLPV
row,Structure (SMILES),IC50
1,NCc1cccc(NC(=O)[C@H](NS(=O)(=O)c2cccc(Cl)c2)c2ccc(OCc3ccccc3)cc2)c1,57.2 µM
2,O=C(O)c1cc(Cl)ccc1S(=O)(=O)Nc1ccc(N2CCCCC2)c(Cl)c1,> 99.5 µM
3,NCc1cccc(NC(=O)[C@@H]2C[C@@H]3CC[C@H]2N3C(=O)OCc2ccccc2)c1,> 99.5 µM
4,COc1cc(C(=O)O)c(S(=O)(=O)Nc2ccc(Oc3ccccc3Cl)cc2)cc1F,91.6 µM
5,NCc1ccc(CNC(=O)c2cc(Cl)cc(NC(=O)OCc3ccccc3)c2)cc1,42.6 µM
6,CN(C)Cc1cccc(-c2ccc(S(=O)(=O)Nc3ccc(Cl)cc3C(=O)O)cc2)c1,> 99.5 µM
7,O=C(O)c1cc(Cl)ccc1S(=O)(=O)NC1CCN(c2ccc(C(F)(F)F)cn2)CC1,> 99.5 µM
8,NCc1cccc(NC(=O)[C@@]23C[C@@H](NC(=O)OCc4ccccc4)C[C@@H]2C3)c1,> 99.5 µM
9,O=C(O)Cc1cc(NS(=O)(=O)c2ccc(Oc3ccccc3Cl)cc2)ccc1Cl,> 99.5 µM
10,Cc1nn(C)cc1-c1ccc(S(=O)(=O)Nc2ccc(Cl)cc2C(=O)O)cc1,> 99.5 µM
11,NCc1cccc(NC(=O)C[C@@H](NC(=O)OCc2ccccc2)c2ccc3c(c2)OCO3)c1,> 99.5 µM
12,O=C(O)c1cc(Cl)ccc1NS(=O)(=O)c1ccc(-c2cc[nH]n2)cc1,> 99.5 µM
13,COc1ccc(N2CCC(NS(=O)(=O)c3ccc(Cl)cc3C(=O)O)CC2)cc1,> 99.5 µM
14,CCn1ccnc(N2CCC[C@H]2C(=O)O)c1=O,> 99.5 µM
15,O=C(O)c1cc(Cl)ccc1S(=O)(=O)NC1CCN(S(=O)(=O)Cc2ccccc2)CC1,> 99.5 µM
16,CN(C)[C@@H]1C[C@H](C(=O)Nc2cccc(CN)c2)CN(C(=O)OCc2ccccc2)C1,> 99.5 µM
17,Cc1cc(N2CCCCC2)ccc1NS(=O)(=O)c1ccc(Cl)cc1C(=O)O,> 99.5 µM
18,O=C(O)c1cc(Cl)ccc1NS(=O)(=O)c1ccc(-c2cncs2)cc1,34.4 µM
19,O=C(O)c1cc(Cl)ccc1NS(=O)(=O)c1ccc(-c2ccccc2F)cc1,29.2 µM
20,O=C(Cn1ccnc(N2CC[C@H](CO)C2)c1=O)Nc1ccccc1,> 99.5 µM
21,NCc1cccc(NC(=O)C[C@@H]2[C@H]3CC[C@H](C3)N2C(=O)OCc2ccccc2)c1,> 99.5 µM

row,Structure (SMILES),IC50
1,NCc1cccc(NC(=O)[C@H](NC(=O)COc2ccccc2)c2ccc(OCc3ccccc3)cc2)c1,26.5 µM
2,COC(=O)Cc1ccccc1-c1ccc(S(=O)(=O)Nc2ccc(Cl)cc2C(=O)O)cc1,> 99.5 µM
3,O=C(O)c1cc(Cl)ccc1S(=O)(=O)Nc1ccc(N2CCCCC2)c(F)c1,> 99.5 µM
4,Cc1cc(C)cc(C(=O)N2CCC(NS(=O)(=O)c3ccc(Cl)cc3C(=O)O)CC2)c1,> 99.5 µM
5,CC(C)(C)OC(=O)NCc1cccc(NC(=O)[C@H](NC(=O)OCc2ccccc2)C2CCNCC2)c1,> 99.5 µM
6,COc1ncc(C(=O)Nc2cccc(CN)c2)cc1NC(=O)OCc1ccccc1,> 99.5 µM
7,NCc1cccc(NC(=O)c2cc(NC(=O)OCc3ccccc3)cc3c2OC(F)(F)O3)c1,> 99.5 µM
8,c1ccc2sc(C3CCN([C@H]4Cc5[nH]c6ccccc6c5C4)CC3)nc2c1,> 99.5 µM
9,CCOc1cc(N2CCN(C)CC2)ccc1NS(=O)(=O)c1ccc(Cl)cc1C(=O)O,> 99.5 µM
10,CCc1ncc(CN2CCC(c3nc4ccccc4s3)CC2)[nH]1,> 99.5 µM
11,O=C(O)c1cc(Cl)ccc1S(=O)(=O)NC1CCN(S(=O)(=O)c2ccc(I)cc2)CC1,> 99.5 µM
12,O=C(O)c1cc(Cl)ccc1NS(=O)(=O)c1ccc(-c2ccc(F)cc2)cc1,32.9 µM
13,CCN1C(=O)CCc2cc(NS(=O)(=O)c3ccc(Cl)cc3C(=O)O)ccc21,> 99.5 µM
14,CN1CC=C(c2ccc(S(=O)(=O)Nc3ccc(Cl)cc3C(=O)O)cc2)CC1,> 99.5 µM
15,CS(=O)(=O)c1ccc(-c2cccc([C@H](NC(=O)OCc3ccccc3)C(=O)Nc3cccc(CN)c3)c2)cn1,> 99.5 µM
16,O=C(O)c1cc(Cl)ccc1S(=O)(=O)NC1CCN(C(=O)c2ccccc2C(F)(F)F)CC1,> 99.5 µM
17,NCc1cccc(NC(=O)[C@H](NC(=O)OCc2ccccc2)C2CCC(c3ccccc3)CC2)c1 (some centres not stated),7.6 µM and 7.31 µM
18,NCc1ccccc1NC(=O)c1cc(Cl)cc(NC(=O)OCc2ccccc2)c1,> 99.5 µM
19,COc1ccc(NS(=O)(=O)c2ccc(Cl)cc2C(=O)O)cc1S(=O)(=O)N1CCCC1,> 99.5 µM
20,NC[C@H]1CC[C@H](CNC(=O)c2cc(Cl)cc(NC(=O)OCc3ccccc3)c2)CC1,25.4 µM and 25.7 µM
21,O=C(O)c1cc(Cl)ccc1S(=O)(=O)Nc1nn(Cc2ccccc2)cc1Cl,> 99.5 µM

# The next lines start with the values.
row,IC50,Structure (SMILES)
1,> 99.5 µM,c1ccc2c(CN3CCCc4cnccc4C3)n[nH]c2c1
2,> 99.5 µM,O=C(O)c1cc(Cl)ccc1S(=O)(=O)NC1CCN(Cc2ccc(F)c(F)c2)CC1
3,> 99.5 µM,CCCNC(=O)Cn1ccnc(N2CC[C@H](CO)C2)c1=O
4,64.8 µM,NCc1cccc(NC(=O)[C@H](NS(=O)(=O)C2CCCCC2)c2ccc(OCc3ccccc3)cc2)c1
5,2.72 µM and 2.68 µM and 3.22 µM and 3.04 µM,NCc1cccc(NC(=O)C[C@H](NC(=O)OCc2ccccc2)c2ccc(OCc3ccccc3)c(Br)c2)c1
6,> 99.5 µM,O=C(O)c1cc(Cl)ccc1S(=O)(=O)N[C@H]1CCn2c(nnc2C(F)(F)F)C1
7,> 99.5 µM,O=C(Nc1ccc(NS(=O)(=O)c2ccc(Cl)cc2C(=O)O)cc1)c1ccccc1
8,> 99.5 µM,O=C(O)c1cc(Cl)ccc1S(=O)(=O)N[C@H]1CC[C@@H](Oc2ccccc2)CC1
9,> 99.5 µM,COc1ccc(NS(=O)(=O)c2ccc(Cl)cc2C(=O)O)cc1-n1nnnc1C
10,28.9 µM and 28.2 µM,NCc1cccc(NC(=O)[C@H](NC(=O)Cc2ccccc2)c2ccc(OCc3ccccc3)cc2)c1
11,17.8 µM,O=C(O)c1cc(Cl)ccc1NS(=O)(=O)c1ccc(-c2ccccc2Cl)cc1
12,> 99.5 µM,O=C(O)c1cc(Cl)ccc1S(=O)(=O)NC1CCN(c2ncnc3c2CCC3)CC1
13,> 99.5 µM,Cn1ccnc(N2CCC(NS(=O)(=O)c3ccc(Cl)cc3C(=O)O)CC2)c1=O
14,> 99.5 µM,NCc1cccc(NC(=O)c2cc(NC(=O)OCc3ccccc3)c(=O)n3c2CCCC3)c1
15,67.4 µM,COc1ncccc1-c1cccc([C@H](NC(=O)OCc2ccccc2)C(=O)Nc2cccc(CN)c2)c1
16,> 99.5 µM,O=C(O)c1cc(Cl)ccc1S(=O)(=O)Nc1ccc(C(=O)N2CCCCC2)cc1
17,> 99.5 µM,O=C(O)c1cc(Cl)ccc1NS(=O)(=O)c1ccc(-c2ccncc2)cc1
18,> 99.5 µM,O=C(O)c1cc(Cl)ccc1S(=O)(=O)Nc1ccc(CCN2CCCC2)cc1
19,> 99.5 µM and 56.7 µM,NCc1cccc(NC(=O)C[C@@H](NC(=O)OCc2ccccc2)C2CCCCC2)c1
20,> 99.5 µM,COc1ccc(NS(=O)(=O)c2ccc(Cl)cc2C(=O)O)cc1N1CCCC1=O
21,> 99.5 µM,O=C(O)c1cc(Cl)ccc1S(=O)(=O)Nc1ccc(F)c(N2CCNC2=O)c1
22,> 99.5 µM,Cn1cc(CCOc2ccc([C@@H](NC(=O)OCc3ccccc3)C(=O)Nc3cccc(CN)c3)cc2)nn1
23,4.1 µM and 3.91 µM,NCCc1cccc(NC(=O)c2cc(Cl)cc(NC(=O)OCc3ccccc3)c2)c1
24,> 99.5 µM,N#Cc1ccc(S(=O)(=O)Nc2ccc(Oc3ccccc3Cl)cc2)c(C(=O)O)c1
25,> 99.5 µM,O=C(O)c1cc(Cl)ccc1S(=O)(=O)Nc1ccc(Oc2ccccn2)cc1
26,> 99.5 µM,O=C(O)c1cc(Cl)ccc1S(=O)(=O)Nc1ccc(S(=O)(=O)N2CCCCC2)cc1
27,> 99.5 µM,Cc1ccc(S(=O)(=O)N2CCC(NS(=O)(=O)c3ccc(Cl)cc3C(=O)O)CC2)cc1
28,> 99.5 µM,CCC1([C@H](NC(=O)OCc2ccccc2)C(=O)Nc2cccc(CN)c2)CCCCC1

row,IC50,Structure (SMILES)
1,> 99.5 µM,CCOC1CC(S(=O)(=O)N[C@H](C(=O)Nc2cccc(CN)c2)c2ccc(OCc3ccccc3)cc2)C1 (some centres not stated)
2,30.8 µM and 30.7 µM,NCc1cccc(NC(=O)[C@H]2[C@@H]3CC[C@@H](C3)[C@H]2NC(=O)OCc2ccccc2)c1
3,> 99.5 µM,CCn1c(=O)c(N2CCC[C@@H]2c2cncn2C)nc2ccccc21
4,15.1 µM and 21.3 µM,NCc1cccc(NC(=O)[C@H](NC(=O)CCc2ccccc2)c2ccc(OCc3ccccc3)cc2)c1
5,> 99.5 µM,C[C@@H]1C[C@H](NS(=O)(=O)c2ccc(Cl)cc2C(=O)O)C[C@H](C)N1Cc1ccccc1
6,43.7 µM,CSc1ccc([C@H](CC(=O)Nc2cccc(CN)c2)NC(=O)OCc2ccccc2)cc1
7,> 99.5 µM,O=C(O)c1cc(Cl)ccc1S(=O)(=O)NC1CCN(CC2CCOCC2)CC1
8,> 99.5 µM,Cc1cccc(N2CCC(NS(=O)(=O)c3ccc(Cl)cc3C(=O)O)CC2)n1
9,> 99.5 µM,O=C(O)c1cc(Cl)ccc1S(=O)(=O)Nc1ccc(N2CCCCCC2)cc1
10,> 99.5 µM,CCn1cc(C(=O)NCc2ccccc2)nc(N2CC[C@@H](CO)C2)c1=O
11,> 99.5 µM,NCc1cccc(NC(=O)[C@@H](NS(=O)(=O)C[C@H]2CCCCO2)c2ccc(OCc3ccccc3)cc2)c1
12,33.5 µM and 34.2 µM,O=C(O)c1cc(Cl)c(F)cc1S(=O)(=O)Nc1ccc(Oc2ccccc2Cl)cc1
13,10.3 µM,NCc1ccc(NC(=O)c2cc(Cl)cc(NC(=O)OCc3ccccc3)c2)cc1
14,> 99.5 µM,COc1ccc(-c2cc(NS(=O)(=O)c3ccc(Cl)cc3C(=O)O)ccc2OC)cc1
15,25.7 µM,O=C(O)c1cc(Cl)ccc1NS(=O)(=O)c1ccc(-c2cccc(F)c2F)cc1
16,23.3 µM,CN(C(=O)OCc1ccccc1)[C@H](C(=O)Nc1cccc(CN)c1)c1ccc(OCc2ccccc2)cc1
17,> 99.5 µM and 66.2 µM,CCCOc1ccc([C@@H](CC(=O)Nc2cccc(CN)c2)NC(=O)OCc2ccccc2)cc1
18,> 99.5 µM,CN(C)c1cc(-c2ccc(S(=O)(=O)Nc3ccc(Cl)cc3C(=O)O)cc2)ccn1
19,> 99.5 µM,O=C(O)c1cc(Cl)ccc1S(=O)(=O)N[C@H]1CCN(Cc2ccccc2)C2(CC2)C1
20,> 99.5 µM,c1cncc(C2CC(NCc3n[nH]c4ccccc34)C2)c1 (configuration not stated)
21,> 99.5 µM,Cc1cc(C)n(-c2ccc(NS(=O)(=O)c3ccc(Cl)cc3C(=O)O)cc2)n1
22,> 99.5 µM,Cc1ncc(COc2ccc([C@H](NC(=O)OCc3ccccc3)C(=O)Nc3cccc(CN)c3)cc2)cn1
23,> 99.5 µM,CCCCN1Cc2ccc(NS(=O)(=O)c3ccc(Cl)cc3C(=O)O)cc2C1
24,> 99.5 µM,O=C(O)c1cc(Cl)ccc1S(=O)(=O)Nc1ccc(F)c(NC(=O)C2CC2)c1
25,46.6 µM,O=C(O)c1cc(Cl)ccc1S(=O)(=O)NC1CCN(c2nc(C3CC3)cc(C(F)(F)F)n2)CC1
26,52.3 µM,CCc1ccc(S(=O)(=O)N[C@@H](C(=O)Nc2cccc(CN)c2)c2ccc(OCc3ccccc3)cc2)cc1
27,7.91 µM,NCc1cccc(NC(=O)c2cc(Br)cc(NC(=O)OCc3ccccc3)c2)c1
